Biological target: T1, GluD2-Lc-(HS2)GluN1 (Rattus norvegicus, UniProt Q63226, A654T/A766F/D767R/N763E/R768S/T764L/V761T/V765F)
T1 construct: the function of full-length receptors as well, we introduced them into the GluD2 lurcher mutant (GluD2-Lc); expressed in transfected cells; host or cells: Xenopus laevis oocytes injected with cRNA
T1 sequence (Q63226 24-1007 A654T/V761T/N763E/T764L/V765F/A766F/D767R/R768S): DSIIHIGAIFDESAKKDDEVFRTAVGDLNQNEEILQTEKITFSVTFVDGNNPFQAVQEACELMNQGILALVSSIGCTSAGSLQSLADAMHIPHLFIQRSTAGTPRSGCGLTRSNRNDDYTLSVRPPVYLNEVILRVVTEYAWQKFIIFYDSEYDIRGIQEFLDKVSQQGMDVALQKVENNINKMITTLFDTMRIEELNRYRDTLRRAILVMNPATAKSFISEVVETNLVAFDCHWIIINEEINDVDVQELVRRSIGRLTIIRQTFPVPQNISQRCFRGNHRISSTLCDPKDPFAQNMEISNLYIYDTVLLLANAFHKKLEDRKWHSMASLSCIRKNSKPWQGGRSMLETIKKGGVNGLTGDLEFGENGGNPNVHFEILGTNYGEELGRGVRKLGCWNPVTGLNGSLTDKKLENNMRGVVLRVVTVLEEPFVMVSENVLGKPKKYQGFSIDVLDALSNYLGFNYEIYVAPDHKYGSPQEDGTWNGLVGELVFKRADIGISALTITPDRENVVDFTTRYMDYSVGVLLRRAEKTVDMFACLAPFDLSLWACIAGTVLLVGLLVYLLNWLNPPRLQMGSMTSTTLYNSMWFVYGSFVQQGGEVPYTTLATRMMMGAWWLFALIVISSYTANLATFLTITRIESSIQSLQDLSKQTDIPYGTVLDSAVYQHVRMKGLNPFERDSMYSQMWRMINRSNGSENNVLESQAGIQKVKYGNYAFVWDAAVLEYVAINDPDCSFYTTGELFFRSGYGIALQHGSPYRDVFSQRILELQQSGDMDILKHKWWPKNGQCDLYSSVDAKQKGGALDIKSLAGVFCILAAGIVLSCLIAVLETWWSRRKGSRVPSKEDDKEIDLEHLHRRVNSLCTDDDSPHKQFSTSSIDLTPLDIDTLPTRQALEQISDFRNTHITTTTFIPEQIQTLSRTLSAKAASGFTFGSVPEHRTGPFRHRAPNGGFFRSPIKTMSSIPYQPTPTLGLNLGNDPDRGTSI
Experiment: Two-electrode voltage clamp in Xenopus oocytes, inhibition of spontaneous currents
Assay type: cell-based
Excerpt: All cDNAs for expression in Xenopus oocytes were cloned into the vector pSGEM[30]. Point mutants of GluD2-Lc were constructed by overlap extension PCR with mutagenic oligonucleotide primers. The GluD2-Lc-(H)GluN1 chimera was constructed by transferring the S1- and S2-encoding sequences from GluD2-LBD-(H)GluN1 to GluD2-Lc via overlap extension PCR using tail primers. The S1 and S2 sequences were transferred separately, yielding GluD2-Lc-(HS1)GluN1 and GluD2-Lc-(HS2)GluN1 constructs. GluD2-Lc-(H)GluN1 was then produced from these by another overlap extension PCR. Complementary RNA (cRNA) for injection into oocytes was synthesised from 1 μg of linearised template DNA with the mMESSAGE mMACHINE in vitro transcription kit (Ambion, Austin, TX, USA).
Oocytes were obtained by surgically removing parts of the ovaries from Xenopus laevis (Nasco, Fort Atkinson, WI, USA) anaesthetised with 1.5 g/L 3-aminobenzoic acid ethylester (Sigma, Taufkirchen, Germany). The ovary clippings were digested with 784 U/mL (4 mg/mL) collagenase type I (Worthington, Lakewood, NJ, USA) in Ca^2+-free Barth’s solution (88 mM NaCl, 1.1 mM KCl, 2.4 mM NaHCO3, 0.8 mM MgSO4, 15 mM HEPES-NaOH, pH 7.6) with gentle agitation for 1.5–2 h at 20 °C to remove the follicular cell layer. After stopping the collagenase digestion by washing with Barth’s solution (88 mM NaCl, 1.1 mM KCl, 2.4 mM NaHCO3, 0.3 mM Ca(NO3)2, 0.4 mM CaCl2, 0.8 mM MgSO4, 15 mM HEPES-NaOH, pH 7.6), defolliculated oocytes of stages V and VI were selected and maintained at 16 °C in Barth’s solution supplemented with 100 μg/mL gentamicin, 40 μg/mL streptomycin, and 63 μg/mL penicillin. Oocytes were injected with 11 ng cRNA (10 ng of each cRNA for co-expression of GluN1 and GluN2A) using a nanoliter injector (WPI, Sarasota, FL, USA). Four days after cRNA injection, current responses were recorded under voltage clamp at –70 mV with a Turbo Tec-10CD amplifier (npi electronic, Tamm, Germany) controlled by Patchmaster software (HEKA, Lambrecht, Germany). Currents were filtered with a 20 Hz low-pass filter and then digitised with a sampling rate of 50 Hz. Recording electrodes were pulled from borosilicate glass (Hilgenberg, Malsfeld, Germany) with an L/M-3P-A vertical pipette puller (List-Medical), filled with 3 M KCl, and had resistances of 0.5–5 MΩ (voltage electrode) or 0.5–1.5 MΩ (current electrode). Recordings were performed in a 50 μL chamber under constant superfusion with extracellular solution at a flow rate of 3–5 mL/min. […] Finally, Ba-NFR and then NMDGR were applied again to check for reversibility.

N[C@H](CO)C(=O)O [D-serine]
D-serine efficacy Mean ± SEM (fraction of spontaneous current inhibited by D-serine): 0.9 ± 0.4% | sensitivity to D-serine (inhibition of spontaneous currents): insensitive
